One assay addresses T1, COX-2 (Homo sapiens, UniProt P35354).
T1 construct: incubation of human whole blood with LPS (lipopolysaccharide), which induces COX-2; from tissue; host or cells: fresh heparinized human whole blood from male and female volunteers, LPS-stimulated for 24 hours
T1 sequence (P35354 18-604): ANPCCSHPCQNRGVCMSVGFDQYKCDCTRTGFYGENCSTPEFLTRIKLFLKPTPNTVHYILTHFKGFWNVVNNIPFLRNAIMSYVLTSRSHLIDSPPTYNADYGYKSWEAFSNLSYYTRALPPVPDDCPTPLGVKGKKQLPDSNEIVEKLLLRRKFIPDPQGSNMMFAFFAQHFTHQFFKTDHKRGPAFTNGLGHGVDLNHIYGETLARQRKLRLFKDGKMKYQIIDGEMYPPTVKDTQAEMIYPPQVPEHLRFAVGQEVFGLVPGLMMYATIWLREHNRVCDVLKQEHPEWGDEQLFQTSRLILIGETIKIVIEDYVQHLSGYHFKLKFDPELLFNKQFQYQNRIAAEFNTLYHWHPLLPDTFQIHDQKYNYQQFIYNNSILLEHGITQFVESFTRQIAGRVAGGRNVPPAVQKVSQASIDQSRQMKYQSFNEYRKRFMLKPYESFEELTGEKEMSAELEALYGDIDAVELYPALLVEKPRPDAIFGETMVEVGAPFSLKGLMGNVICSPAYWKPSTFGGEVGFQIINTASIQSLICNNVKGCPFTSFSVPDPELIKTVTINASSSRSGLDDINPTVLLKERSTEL
In words: Human Whole Blood (HWB) Assay: COX-2 (LPS-induced PGE2 production). In kind it is cell-based. The following applies: LPS-induced PGE2, 24 hours at 37° C. As for the experimental part:
Human Whole Blood (HWB) Assay Human whole blood provides a protein and cell-rich milieu appropriate for the study of biochemical efficacy of anti-inflammatory compounds such as selective COX-2 inhibitors. […] This is consistent with the observation that COX-2 inhibitors have no effect on PGE2 production in normal blood. These inhibitors are active only after incubation of human whole blood with LPS (lipopolysaccharide), which induces COX-2. This assay can be used to evaluate the inhibitory effect of selective COX-2 inhibitors on PGE2 production. As well, platelets in whole blood contain a large amount of the COX-1 enzyme. Immediately following blood clotting, platelets are activated through a thrombin-mediated mechanism. This reaction results in the production of thromboxane B2 (T×B2) via activation of COX-1. Thus, the effect of test compounds on T×B2 levels levels following blood clotting can be examined and used as an index for COX-1 activity. Therefore, the degree of selectivity by the test compound can be determined by measuring the levels of PGE2 after LPS induction (COX-2) and T×B2 following blood clotting (COX-1) in the same assay. A. COX-2 (LPS-induced PGE2 production) Fresh blood was collected in heparinized tubes by venipuncture from both male and female volunteers. The subjects had no apparent inflammatory conditions and had not taken any NSAIDs for at least 7 days prior to blood collection. Plasma was immediately obtained from a 2 mL blood aliquot to use as blank (basal levels of PGE2). The remaining blood was incubated with LPS ([…] final concentration, Sigma Chem, #L-2630 from E. coli; diluted in 0.1% BSA-Phosphate buffered saline) for […]. […] At the end of the incubation, the blood was centrifuged at 12,000×g for 5 minutes to obtain plasma. A […] aliquot of plasma was mixed with […] of methanol for protein precipitation. The supernatant was obtained and was assayed for PGE2 using a radioimmunoassay kit (Amersham, RPA#530) after conversion of PGE2 to its methyl oximate derivative according to the manufacturer's procedure. Compounds of the present invention are inhibitors of cyclooxygenase-2 and are thereby useful in the treatment of cyclooxygenase-2 mediated diseases as enumerated above. The activities of the compounds against cyclooxygenase may be seen in the representative results shown below. In the assay, inhibition is determined by measuring the amount of prostaglandin E2 (PGE2) synthesized in the presence of arachidonic acid, cyclooxygenase-1 or cyclooxygenase-2 and a putative inhibitor. The IC50 values represent the concentration of putative inhibitor required to return PGE2 synthesis to 50% of that obtained as compared to the uninhibited control.

A further assay concerns Rat Paw Edema. In words: Rat Paw Edema Assay. In kind it is in vivo. The following applies: male Sprague-Dawley rats, po 1 hr before carrageenan, paw volume increase 3 hr later. As for the experimental part:
Rat Paw Edema Assay-Protocol
Male Sprague-Dawley rats (150-200 g) were fasted overnight and were given po either vehicle (1% methocel or 5% Tween 80) or a test compound. One hr later, a line was drawn using a permanent marker at the level above the ankle in one hind paw to define the area of the paw to be monitored. The paw volume (V0) was measured using a plethysmometer (Ugo-Basile, Italy) based on the principle of water displacement. The animals were then injected subplantarly with […] of 1% carrageenan solution in saline (FMC Corp, Maine) into the paw using an insulin syringe with a 25-gauge needle (i.e. […] carrageenan per paw). Three hr later, the paw volume (V3) was measured and the increases in paw volume (V3 -V0) were calculated. The animals were sacrificed by CO2 aphyxiation and the absence or presence of stomach lesions scored. Data were compared with the vehicle-control values and percent inhibition calculated. Since a maximum of 60-70% inhibition (paw edema) was obtained with standard NSAIDs, ED50 values were used for comparison. All treatment groups were coded to eliminate observer bias.

For the next assay, the target named is T2, COX-1 (Homo sapiens, UniProt P23219).
T2 construct: platelets in whole blood contain a large amount of the COX-1 enzyme; from tissue; host or cells: fresh human whole blood without anticoagulant, allowed to clot (platelets)
The assay is described as follows: Human Whole Blood (HWB) Assay: COX-1 (Clotting-induced TxB2 production). In kind it is cell-based. The following applies: clotting-induced TxB2, 1 hour at 37° C. How it is done: Human Whole Blood (HWB) Assay
Human whole blood provides a protein and cell-rich milieu appropriate for the study of biochemical efficacy of anti-inflammatory compounds such as selective COX-2 inhibitors. […] This is consistent with the observation that COX-2 inhibitors have no effect on PGE2 production in normal blood. These inhibitors are active only after incubation of human whole blood with LPS (lipopolysaccharide), which induces COX-2. This assay can be used to evaluate the inhibitory effect of selective COX-2 inhibitors on PGE2 production. As well, platelets in whole blood contain a large amount of the COX-1 enzyme. Immediately following blood clotting, platelets are activated through a thrombin-mediated mechanism. This reaction results in the production of thromboxane B2 (T×B2) via activation of COX-1. […] Therefore, the degree of selectivity by the test compound can be determined by measuring the levels of PGE2 after LPS induction (COX-2) and T×B2 following blood clotting (COX-1) in the same assay. […]
Compounds of the present invention are inhibitors of cyclooxygenase-2 and are thereby useful in the treatment of cyclooxygenase-2 mediated diseases as enumerated above. […] In the assay, inhibition is determined by measuring the amount of prostaglandin E2 (PGE2) synthesized in the presence of arachidonic acid, cyclooxygenase-1 or cyclooxygenase-2 and a putative inhibitor. […]

T2 sequence (P23219 24-599): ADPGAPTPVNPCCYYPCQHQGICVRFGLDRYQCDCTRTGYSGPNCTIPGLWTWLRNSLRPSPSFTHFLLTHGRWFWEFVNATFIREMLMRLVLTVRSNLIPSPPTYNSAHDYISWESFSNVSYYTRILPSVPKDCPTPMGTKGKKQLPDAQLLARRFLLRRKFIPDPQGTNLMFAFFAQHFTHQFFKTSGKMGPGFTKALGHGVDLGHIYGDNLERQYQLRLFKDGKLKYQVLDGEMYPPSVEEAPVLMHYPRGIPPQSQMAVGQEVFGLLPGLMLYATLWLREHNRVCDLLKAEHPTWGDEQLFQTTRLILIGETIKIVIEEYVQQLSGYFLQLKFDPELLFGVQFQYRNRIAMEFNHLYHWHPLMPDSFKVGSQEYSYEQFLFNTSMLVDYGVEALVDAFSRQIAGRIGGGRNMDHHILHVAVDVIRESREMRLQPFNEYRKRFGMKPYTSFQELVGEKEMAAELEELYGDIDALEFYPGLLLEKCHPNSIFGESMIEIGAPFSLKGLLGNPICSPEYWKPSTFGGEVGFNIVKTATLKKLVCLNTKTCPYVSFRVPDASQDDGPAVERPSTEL

As to `CC1(O)OC(=O)C(c2ccccc2)=C1c1ccc(S(C)(=O)=O)cc1` (centres unmarked) [Example 4, 5-Hydroxy-5-methyl-4-(4-(methylsulfonyl)phenyl)-3-phenyl-2-(5H)-furanone], the half-inhibitory concentration (IC50) – broadly, the midpoint of a concentration-inhibition curve – at COX-2 is 1.27 µM. In addition, the ED50 (commonly the dose that gives a 50% effect, or the effect in half of the subjects) with Rat Paw Edema was 1.53 mg/kg.

The compound `CC1(O)OC(=O)C(c2ccc(F)cc2)=C1c1ccc(S(C)(=O)=O)cc1` (centres unmarked) [Example 5, 3-(4-Fluorophenyl)-5-hydroxy-5-methyl-4-(4-(methylsulfonyl)phenyl)-2-(5H)-furanone] gave a concentration for half-maximal inhibition (IC50) against COX-2 of 1.41 µM. This compound also came in with an ED50 with Rat Paw Edema of 1.84 mg/kg.

Turning to `CC1(O)OC(=O)C(c2ccc(Cl)cc2)=C1c1ccc(S(C)(=O)=O)cc1` (centres unmarked) [Example 6, 3-(4-Chlorophenyl)-5-hydroxy-5-methyl-4-(4-(methylsulfonyl)phenyl)-2-(5H)-furanone], the IC50 on COX-2 turned out to be 2.42 µM. The same compound came in with an ED50 in the assay with Rat Paw Edema of 1.41 mg/kg.

In the case of `COC1(C)OC(=O)C(c2ccccc2)=C1c1ccc(S(C)(=O)=O)cc1` (centres unmarked) [Example 10, 5-Methoxy-5-methyl-4-(4-(methylsulfonyl)phenyl)-3-phenyl-2-(5H)-furanone], the half-maximal inhibitory concentration (IC50) on COX-2 was under 0.37 µM. Moreover, in the assay with Rat Paw Edema, the median effective dose (ED50) was 1.94 mg/kg.

For the compound `COC1(C)OC(=O)C(c2ccc(F)cc2)=C1c1ccc(S(C)(=O)=O)cc1` (centres unmarked) [Example 15, 3-(4-Fluorophenyl)-5-methoxy-5-methyl-4-(4-(methylsulfonyl)phenyl)-2-(5H)-furanone], the values for the IC50 at COX-2 and at COX-1 were under 0.37 µM and over 30 µM, respectively. In the assay on Rat Paw Edema, the ED50 was determined as 2.8 mg/kg.
